Source: PubChem BioAssay (NCI)
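Step 1: Grow cells in 96-well plates. Step 2: Expose to compound for 48 hours at 5 concentrations. Step 3: Interpolate endpoints linearly; if unreached, use highest concentration. At the GI50, growth is halved. TGI denotes the concentration required for complete inhibition of growth.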

Columns and labels:
Test in all cases: NCI-60 cell line screen, 48 h
HCT-15 colon = tested on: HCT-15 colon
NCI/ADR-RES ovarian = tested on: NCI/ADR-RES ovarian
MDA-MB-231 breast = tested on: MDA-MB-231 breast
EKVX NSCLC = tested on: EKVX NSCLC
HOP-62 NSCLC = tested on: HOP-62 NSCLC
ACHN renal = tested on: ACHN renal
COLO 205 colon = tested on: COLO 205 colon
RPMI-8226 leukemia = tested on: RPMI-8226 leukemia
LOX IMVI melanoma = tested on: LOX IMVI melanoma
MOLT-4 leukemia = tested on: MOLT-4 leukemia
SF-268 CNS = tested on: SF-268 CNS
OVCAR-4 ovarian = tested on: OVCAR-4 ovarian
NCI-H460 lung = tested on: NCI-H460 lung
786-0 renal = tested on: 786-0 renal
NCI-H522 lung = tested on: NCI-H522 lung
HL-60(TB) leukemia = tested on: HL-60(TB) leukemia
SR leukemia = tested on: SR leukemia
KM12 colon = tested on: KM12 colon
MCF7 breast = tested on: MCF7 breast

## CC(=N/NC(=S)N1CCCCC1)/C(C)=N\NC(=S)N1CCCCC1
HCT-15 colon
  TGI: 5.31 µM
NCI/ADR-RES ovarian
  TGI: 5.22 µM
MDA-MB-231 breast
  TGI: 5.63 µM
EKVX NSCLC
  TGI: 3.11 µM
HOP-62 NSCLC
  TGI: 3.51 µM
ACHN renal
  TGI: 2.92 µM
COLO 205 colon
  TGI: 3.62 µM
RPMI-8226 leukemia
  TGI: 5.13 µM
LOX IMVI melanoma
  TGI: > 100 µM
MOLT-4 leukemia
  TGI: > 100 µM
SF-268 CNS
  TGI: 3.45 µM
OVCAR-4 ovarian
  TGI: 3.46 µM
NCI-H460 lung
  TGI: 3.6 µM
786-0 renal
  TGI: 3.1 µM
NCI-H522 lung
  TGI: 4.74 µM

## Cc1ccc([N+](=O)[O-])cc1S(=O)(=O)Nc1ccc(C2=NNC(c3cccs3)C2)cc1 (centres undefined)
HCT-15 colon
  TGI: > 100 µM
NCI/ADR-RES ovarian
  TGI: 94.6 µM
HL-60(TB) leukemia
  TGI: 50.9 µM
EKVX NSCLC
  TGI: 64.2 µM
HOP-62 NSCLC
  TGI: 60.2 µM
ACHN renal
  TGI: 82.9 µM
COLO 205 colon
  TGI: 35.6 µM
RPMI-8226 leukemia
  TGI: > 100 µM
LOX IMVI melanoma
  TGI: > 100 µM
MOLT-4 leukemia
  TGI: 92.9 µM
SR leukemia
  TGI: 78.8 µM
KM12 colon
  TGI: 76.1 µM
SF-268 CNS
  TGI: > 100 µM
OVCAR-4 ovarian
  TGI: > 100 µM
NCI-H460 lung
  TGI: > 100 µM
786-0 renal
  TGI: > 100 µM
MCF7 breast
  TGI: 47.8 µM
NCI-H522 lung
  TGI: > 100 µM

## CC1C(c2ccc3c(c2)OCO3)c2cc3c(cc2OC1N1CCCCC1)OCO3 (centres undefined)
HCT-15 colon
  TGI: > 100 µM
NCI/ADR-RES ovarian
  TGI: > 100 µM
EKVX NSCLC
  TGI: > 100 µM
HOP-62 NSCLC
  TGI: > 100 µM
ACHN renal
  TGI: > 100 µM
COLO 205 colon
  TGI: > 100 µM
RPMI-8226 leukemia
  TGI: > 100 µM
LOX IMVI melanoma
  TGI: > 100 µM
MOLT-4 leukemia
  TGI: > 100 µM
SR leukemia
  TGI: > 100 µM
KM12 colon
  TGI: > 100 µM
SF-268 CNS
  TGI: > 100 µM
NCI-H460 lung
  TGI: > 100 µM
786-0 renal
  TGI: > 100 µM
MCF7 breast
  TGI: > 100 µM
NCI-H522 lung
  TGI: > 100 µM

## C=Cc1cc2c(cc1O)CC[C@@H]1[C@@H]2CC[C@]2(C)[C@@H](O)CC[C@@H]12
HCT-15 colon
  TGI: 28.8 µM
NCI/ADR-RES ovarian
  TGI: 5.3 µM
HL-60(TB) leukemia
  TGI: 7.27 µM
MDA-MB-231 breast
  TGI: 18.7 µM
EKVX NSCLC
  TGI: 29 µM
HOP-62 NSCLC
  GI50: 5.04 µM
  TGI: 19.8 µM
ACHN renal
  TGI: 21.1 µM
COLO 205 colon
  TGI: 30.1 µM
LOX IMVI melanoma
  TGI: 25.1 µM
MOLT-4 leukemia
  TGI: 14.5 µM
SR leukemia
  TGI: 8.4 µM
KM12 colon
  TGI: 14.9 µM
SF-268 CNS
  TGI: 21.9 µM
OVCAR-4 ovarian
  TGI: 26.9 µM
NCI-H460 lung
  TGI: 21.1 µM
786-0 renal
  TGI: 14.3 µM
NCI-H522 lung
  TGI: 20.6 µM

## O=C1CC(c2ccc[nH]2)=NN1c1ccccc1
HCT-15 colon
  TGI: > 100 µM
NCI/ADR-RES ovarian
  TGI: > 100 µM
HL-60(TB) leukemia
  TGI: > 100 µM
MDA-MB-231 breast
  TGI: > 100 µM
EKVX NSCLC
  TGI: > 100 µM
HOP-62 NSCLC
  TGI: > 100 µM
ACHN renal
  TGI: > 100 µM
COLO 205 colon
  TGI: > 100 µM
RPMI-8226 leukemia
  TGI: > 100 µM
LOX IMVI melanoma
  TGI: > 100 µM
MOLT-4 leukemia
  TGI: 85.5 µM
KM12 colon
  TGI: > 100 µM
SF-268 CNS
  TGI: > 100 µM
OVCAR-4 ovarian
  TGI: > 100 µM
NCI-H460 lung
  TGI: > 100 µM
786-0 renal
  TGI: > 100 µM
NCI-H522 lung
  TGI: > 100 µM

## CCOC(=O)C(C)(C)/C=C\C(Cl)=C(Cl)Cl
NCI/ADR-RES ovarian
  TGI: > 100 µM
HL-60(TB) leukemia
  TGI: > 100 µM
MDA-MB-231 breast
  TGI: > 100 µM
EKVX NSCLC
  TGI: > 100 µM
HOP-62 NSCLC
  TGI: > 100 µM
ACHN renal
  TGI: > 100 µM
COLO 205 colon
  TGI: > 100 µM
RPMI-8226 leukemia
  TGI: > 100 µM
LOX IMVI melanoma
  TGI: > 100 µM
MOLT-4 leukemia
  TGI: > 100 µM
SR leukemia
  TGI: > 100 µM
KM12 colon
  TGI: > 100 µM
SF-268 CNS
  TGI: > 100 µM
786-0 renal
  TGI: > 100 µM
NCI-H522 lung
  TGI: > 100 µM
